Consider two compounds from the NIST ThermoML archive (doi:10.1016/j.jct.2011.05.022).

The nature of the data set: molar heat capacity at constant pressure. Conditions: 101.33 kPa, Liquid, Small sample (50 mg) DSC.

Structures are written as SMILES. ± gives the expanded uncertainty stated by the source.

`CCCC[N+]1(C)CCCC1.N#C[B-](C#N)(C#N)C#N` [1-butyl-1-methylpyrrolidinium tetracyanoborate]: the “molar heat capacity at constant pressure” value by setting is: (298.2 K) 524 ± 53 J/K/mol; (323.2 K) 554 ± 56 J/K/mol.

With `CCCC[n+]1cccc(C)c1.N#C[B-](C#N)(C#N)C#N` [1-butyl-3-methylpyridinium tetracyanoborate], the “molar heat capacity at constant pressure” value runs as follows: (298.2 K) 495 ± 50 J/K/mol; (323.2 K) 524 ± 53 J/K/mol.
